According to patent US9907791B2, “Ron inhibitors for use in preventing and treating bone loss” (UNIVERSITY OF UTAH RESEARCH FOUNDATION, priority 2014, dated 2018):

Columns and labels:
bone marrow osteoclasts [1] = assay: Osteoclast survival assay; assay type: cell-based, mice; settings: 10 μM Src inhibitor daily from day 7 for 48 hours, with MSP
Procedure: Bone marrow precursor cells were thawed and seeded at a density of 2×10^5 cells per well in a 24-well plate containing glass coverslips in α-MEM media containing 10% FBS and antibiotics. After adhering overnight, media was removed and media containing 33 ng/mL hM-CSF and 9 ng/mL muRANKL was added. Cells were allowed to differentiate for 7 days with media changed every 3 days. Coverslips were then imaged microscopically using phase contrast to determine osteoclast number in each well. To test survival, factor-containing media was removed and α-MEM media containing 10% FBS was added as well as MSP as indicated. Cells were cultured for an additional 48 hours, fixed with 10% NBF for 10 minutes and washed with 1×PBS. For TRAP fluorescent staining, the leukocyte acid phosphatase kit (Sigma, St. Louis, Mo.) was used according to the manufacturer's instructions, with the substitution of 200 μM ELF97 (Invitrogen, Waltham, Mass.) as a phosphatase substrate. Coverslips were incubated in TRAP solution for 15 minutes at 37 degrees, washed with 1×PBS and counterstained with DAPI. The number of multinucleated TRAP+ cells (containing 4 or more nuclei) within 5 representative fields were included for quantification. Experiments were performed in triplicate.

[2] = test system: MSP-overexpressing MDA-MB-231 cells; assay: Intratibial MSP-overexpressing MDA-MB-231 tumor-induced osteolysis; assay type: in vivo, NOD.SCID mice; settings: treated 3 days post tumor cell injection, sacrificed 30 days
From the text: (§1) All procedures involving mice and experimental protocols were approved by the Institutional Animal Care and Use Committee (IACUC) of the University of Utah. The RonTK−/− mice which reside on the FVB background, were crossed with NOD.SCID mice for an immune-compromised mouse model. As a control, wild-type FVB mice were also crossed with NOD.SCID mice. The STK−/− mice, which are on a C57BL/6 background, were compared to wild-type C57BL/6 mice as controls. Mice for all experiments were 6 to 8 weeks of age. For intratibial injections, 1×10^5 (PyMTor DU4475) or 3×10^5 (MDA-MB-231) tumor cells were resuspended in 10 μL matrigel and injected into the right tibia of anesthetized female FVB (PyMT) or NOD.SCID mice carrying various alleles of RON. Osteolysis was assessed by X-ray radiography. Dissected hindlimbs from mice sacrificed at the final time point in each experiment were placed in the Kodak In-vivo Multispectral Imaging System FX and exposed to X-ray radiography at 35 kV for 100 sec. Excess tumor tissue was removed from the bones prior to X-ray. Osteolytic lesions were quantified using Image J software (NCBI). All images were compared to the contralateral leg as an internal control.
(§2) For in vivo experiments, the OSI-296 inhibitor was dissolved in 40% Trappsol with 0.01 M HCl, and mice were treated at a concentration of 200 mg/kg daily by oral gavage. […]

PyMT control tumor cells = assay: Intratibial PyMT control tumor-induced osteolysis; assay type: in vivo, mice; settings: WT mice, treatment began 3 days post injection, sacrificed 42 days post injection
From the text: as §1, §2

RON = RON (Homo sapiens, UniProt Q04912); settings: from the cited IC50 values; cited from earlier work
Chain of RON (Q04912 25-1400): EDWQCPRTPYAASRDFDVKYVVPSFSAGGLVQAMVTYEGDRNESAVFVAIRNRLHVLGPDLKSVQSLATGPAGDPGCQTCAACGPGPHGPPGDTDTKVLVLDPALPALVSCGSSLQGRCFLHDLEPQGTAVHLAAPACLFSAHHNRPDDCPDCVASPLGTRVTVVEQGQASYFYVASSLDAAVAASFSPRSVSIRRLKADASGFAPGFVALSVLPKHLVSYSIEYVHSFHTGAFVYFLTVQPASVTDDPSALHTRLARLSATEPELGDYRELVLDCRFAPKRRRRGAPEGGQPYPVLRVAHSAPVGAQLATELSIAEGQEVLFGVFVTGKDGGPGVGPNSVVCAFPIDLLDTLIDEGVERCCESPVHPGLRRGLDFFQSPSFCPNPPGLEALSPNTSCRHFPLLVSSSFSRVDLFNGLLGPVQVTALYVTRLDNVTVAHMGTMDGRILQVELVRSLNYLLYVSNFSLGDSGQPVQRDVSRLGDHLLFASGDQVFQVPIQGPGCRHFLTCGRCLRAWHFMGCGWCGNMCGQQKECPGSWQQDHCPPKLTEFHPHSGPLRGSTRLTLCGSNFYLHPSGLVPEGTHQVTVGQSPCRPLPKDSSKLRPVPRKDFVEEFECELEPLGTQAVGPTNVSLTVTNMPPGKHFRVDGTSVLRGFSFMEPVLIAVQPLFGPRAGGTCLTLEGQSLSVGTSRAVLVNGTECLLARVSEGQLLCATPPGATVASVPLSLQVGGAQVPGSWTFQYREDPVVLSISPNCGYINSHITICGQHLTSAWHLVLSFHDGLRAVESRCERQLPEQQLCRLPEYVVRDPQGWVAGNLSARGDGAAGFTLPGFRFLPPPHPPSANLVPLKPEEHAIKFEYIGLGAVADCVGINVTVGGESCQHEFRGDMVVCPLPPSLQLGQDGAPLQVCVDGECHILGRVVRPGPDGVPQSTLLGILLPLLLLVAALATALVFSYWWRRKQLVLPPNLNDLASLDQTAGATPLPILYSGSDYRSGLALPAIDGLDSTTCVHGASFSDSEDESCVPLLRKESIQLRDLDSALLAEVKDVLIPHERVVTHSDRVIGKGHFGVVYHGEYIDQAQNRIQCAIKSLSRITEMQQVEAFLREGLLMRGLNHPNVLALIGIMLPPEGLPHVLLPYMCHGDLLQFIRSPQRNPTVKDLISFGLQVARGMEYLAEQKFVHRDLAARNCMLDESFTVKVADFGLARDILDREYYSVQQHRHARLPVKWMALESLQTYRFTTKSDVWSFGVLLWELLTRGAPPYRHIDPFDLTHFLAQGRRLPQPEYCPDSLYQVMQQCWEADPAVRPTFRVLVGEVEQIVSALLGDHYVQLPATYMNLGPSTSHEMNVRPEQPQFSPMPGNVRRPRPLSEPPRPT

bone marrow osteoclasts [3] = assay: Osteoclast resorption assay; assay type: cell-based, mice; settings: WT osteoclasts, inhibitors 10 μM or muRANK-Fc 10 μg/mL daily day 9 to 12
Procedure: Bone marrow osteoclasts were generated from 6 to 8 week old WT and RonTK−/− mice. Briefly, bone marrow was isolated from hindlimb bones and plated in α-MEM media containing 10% heat-inactivated fetal bovine serum (FBS, Sigma, St. Louis, Mo.), 100 units/mL penicillin-streptomycin (Hyclone), and 33 ng/mL human macrophage colony-stimulating factor (hM-CSF) (PeproTech, Rocky Hill, N.J.) for 24 hours. Non-adherent cells were collected and frozen for later use. To assess resorption activity, bone marrow precursor cells were thawed and seeded at a density of 1×10^5 cells per well in BioCoat Osteologic slides (BD Biosciences, San Jose, Calif.) in α-MEM media containing 10% FBS and antibiotics. After adhering overnight, media was removed and media containing 33 ng/mL hM-CSF and 9 ng/mL muRANKL (R & D systems, Minneapolis, Minn.) was added. The medium was changed every 3 days depending on acidification, and the assay was terminated as indicated. Recombinant human MSP was prepared and added daily as indicated. Cells were removed with 6% bleach and slides were viewed microscopically using phase-contrast with 20× magnification. Osteolytic resorption area within 5 representative fields was determined using Image J software, experiments were performed in triplicate. […]

PyMT-MSP tumor cells = assay: Intratibial PyMT-MSP tumor-induced osteolysis; assay type: in vivo, mice
From the text: as §1
Hindlimb bones were excised from mice at the time of sacrifice and bones were fixed in 10% neutral-buffered formalin, decalcified in Formical-2000 (Decal Corporation, Tallman, N.Y.) for 8 days and embedded in paraffin for hematoxylin and eosin (H & E) or immunohistochemical staining. Osteoclast number was assessed as TRAP^+ multinucleated cells containing 4 or more nuclei and reported as TRAP^+ cells per field. Three sections per mouse and 5 fields per section were used for quantification with fields representing the entire length of the tibia. Tumor proliferation rate was reported as the number of cells which were positive for phospho-H3 staining compared to the number of unstained cells per field expressed as a percent. Three sections per mouse and 5 fields per section were used for quantification with analysis being restricted to within the bone marrow cavity. Immunohistochemical analysis was performed with heat-induced antigen retrieval in sodium-citrate buffer (Dako, Denmark). Primary antibodies used were anti-TRAP at 1:50 (Santa Cruz, sc-30833, Dallas, Tex.), anti-Ki67 at 1:100 (Santa Cruz, sc-12202S, Dallas, Tex.), anti-phosphoH3 at 1:100 (Cell Signaling, #9701, Beverly, Mass.), anti-NFATc1 at 1:50 (Santa Cruz, sc-13033, Dallas, Tex.), and anti-RON at 1:250 (Santa Cruz, sc-322, Dallas, Tex.). Bones from mice lacking RON were used as a negative control. Biotinylated secondary antibody was used with the EnVision^+ system HRP kit (Dako, Denmark) and nuclei counterstained with hematoxylin.
For in vivo experiments, the OSI-296 inhibitor was dissolved in 40% Trappsol with 0.01 M HCl, and mice were treated at a concentration of 200 mg/kg daily by oral gavage. Treatment began either 3 days after tumor cell injection for prophylactic experiments, or 3 weeks after tumor cell injection for therapeutic experiments. ASLAN002 was dissolved in 70% PEG400 with 1×PBS and mice were treated at a concentration of 50 mg/kg daily by oral gavage. muRANK-Fc was given at a concentration of 10 mg/kg every three days by intra-peritoneal injection. For the osteoporosis study, mice were treated beginning on the day after ovary removal. The treatment regimen for OSI-296 was 200 mg/kg every other day by oral gavage. ASLAN002 was administered at 50 mg/kg every other day by oral gavage. Treatment continued until the time of sacrifice at 28 days.

Row | Structure (SMILES) | MSP-mediated osteoclast survival (bone marrow osteoclasts [1]) | osteolysis from MSP-expressing MDA-MB-231 tumor cells [2] | osteolysis from PyMT control tumors (no MSP) (PyMT control tumor cells) | selectivity between RON and Met (RON) | MSP-induced increase in osteoclast resorption (resorption area) (bone marrow osteoclasts [3]) | inhibition of osteolysis (PyMT-MSP tumor cells; PyMT-MSP tumors, treatment beginning three days after tumor injection, average) | TRAP+ osteoclasts in tumor-bearing bones (PyMT-MSP tumor cells; TRAP staining of bone sections) | PyMT-MSP tumor growth in the bone (PyMT-MSP tumor cells; caliper measurements) | PyMT-MSP tumor proliferation rate in the bone (PyMT-MSP tumor cells; percent cells positive for phospho-H3) | progression of existing tumor-induced bone loss (PyMT-MSP tumor cells; post osteolysis treatment, about three weeks after tumor injection)
1 | CN1CCN(CCOc2cc(OC3CCOCC3)c3c(Nc4c(Cl)ccc5c4OCO5)ncnc3c2)CC1 [AZD0530] | blocked MSP-mediated survival | – | – | – | – | – | – | – | – | –
2 | C[C@@H](Oc1c(N)ncc2c(C3=CCN(C(N)=O)CC3)coc12)c1c(Cl)ccc(F)c1Cl [OSI-296] | – | reduce MSP-mediated osteolysis to levels seen in control tumor cells | did not have an effect | more selective for Met | dramatically reduced | 4-6 fold | no significant effect | reduced | reduced | prevent further tumor-induced bone loss
